Where a name gives a salt, the structure may show the parent alone. Read-outs that look alike come from different tables or passages of the source. One block for each molecule: values may come before it.
Tests used:
[1] = cited from earlier work
[2] = Particle size measurement of Citalopram HBr, Paroxetine HCl and Fluoxetine HCl; format: physicochemical; settings: for D (v, 0.9) / D (v. 0.1) / Mean, D [4, 3] / Median, D (v, 0.5) / Span / Uniformity: Dispersed in air, Distribution Type: Volume
Method: Particle size measurements were conducted on Paroxetine HCl.

[3] = cited from earlier work; remark: listed apart in the source
[4] = cited from earlier work; remark: listed apart in the source
[5] = cited from earlier work; remark: listed apart in the source
[6] = 30 mg tablets daily for 30 days, normal male subjects
[7] = 30 mg tablets daily for 30 days
[8] = single dose with and without food

SMILES: CN(C)CCCC1(c2ccc(F)cc2)OCc2cc(C#N)ccc21 (racemic) [Citalopram, (RS)-1-[3-(dimethylamino)propyl]-1-(4-fluorophenyl)-5-phthalancarbonitrile hydrobromide]
- absolute bioavailability ([1]; relative to an intravenous dose): about 80%
- time at which peak blood levels occur ([1]; single oral dose (40 mg tablet)): about 4 hours

SMILES: Br.CN(C)CCCC1(c2ccc(F)cc2)OCc2cc(C#N)ccc21 (centres unmarked) [Citalopram HBr Provided by Supplier 1]
- Dia.on % (10.0%) ([2]; Dist. Base: Volume): 3.267 µm
- Dia.on % (20.0%) ([2]; Dist. Base: Volume): 4.606 µm
- Dia.on % (35.0%) ([2]; Dist. Base: Volume): 6.212 µm
- Dia.on % (70.0%) ([2]; Dist. Base: Volume): 10.295 µm
- Dia.on % (90.0%) ([2]; Dist. Base: Volume): 14.874 µm
- Particle size, C.V. ([2]; Dist. Base: Volume): 54.90%
- Particle size, Mean ([2]; Dist. Base: Volume): 8.569 µm
- Particle size, Median ([2]; Dist. Base: Volume): 7.781 µm
- Particle size, Mode ([2]; Dist. Base: Volume): 8,253 µm
- SP. Area ([2]; Dist. Base: Volume): 10290 cm^2/cm^2
- Span: (D 20.0-D 10.0)/D50 ([2]; Dist. Base: Volume): Span: (D 20.0-D 10.0)/D50 = 0.172

SMILES: Br.CN(C)CCCC1(c2ccc(F)cc2)OCc2cc(C#N)ccc21 (centres unmarked) [Citalopram HBr Provided by Supplier 2]
- D (v, 0.9) [2]: 1191.10 µm
- D (v. 0.1) [2]: 1.62 µm
- Mean, D [4, 3] [2]: Mean, D [4, 3] = 259.27 µm
- Median, D (v, 0.5) [2]: 7.27 µm
- Span [2]: Span = 1.637E+02
- Uniformity [2]: Uniformity = 3.518E+01

SMILES: CN(C)CCC[C@@]1(c2ccc(F)cc2)OCc2cc(C#N)ccc21 [Escitalopram, S-(+)-1-[3-(dimethyl-amino)propyl]-1-(β-fluorophenyl)-5-phthalancarbonitrile oxalate]
- single and multiple dose pharmacokinetics ([3]; dose range of 10 to 30 mg per day): linear and dose proportional
- mean Tmax ([3]; single oral dose (20 mg tablet)): 5 ± 1.5 h

- Dia.on % (10.0%) ([2]; Dist. Base: Volume): 7.877 µm
- Dia.on % (20.0%) ([2]; Dist. Base: Volume): 10.941 µm
- Dia.on % (35.0%) ([2]; Dist. Base: Volume): 15.114 µm
- Dia.on % (70.0%) ([2]; Dist. Base: Volume): 29.4885 µm
- Dia.on % (90.0%) ([2]; Dist. Base: Volume): 118.199 µm
- Particle size, C.V. ([2]; Dist. Base: Volume): 161.24%
- Particle size, Mean ([2]; Dist. Base: Volume): 45.505 µm
- Particle size, Median ([2]; Dist. Base: Volume): 19.672 µm
- SP. Area ([2]; Dist. Base: Volume): 3861 cm^2/cm^2
SMILES: CNCCC(Oc1ccc(C(F)(F)F)cc1)c1ccccc1.Cl (centres unmarked) [Fluoxetine HCl Provided by Supplier 1]

- Dia.on % (10.0%) ([2]; Dist. Base: Volume): 5.668 µm
- Dia.on % (20.0%) ([2]; Dist. Base: Volume): 9.337 µm
- Dia.on % (35.0%) ([2]; Dist. Base: Volume): 14.546 µm
- Dia.on % (70.0%) ([2]; Dist. Base: Volume): 42.5575 µm
- Dia.on % (90.0%) ([2]; Dist. Base: Volume): 296.388 µm
- Particle size, C.V. ([2]; Dist. Base: Volume): 144.70%
- Particle size, Mean ([2]; Dist. Base: Volume): 86.383 µm
- Particle size, Median ([2]; Dist. Base: Volume): 20.638 µm
- SP. Area ([2]; Dist. Base: Volume): 5004 cm^2/cm^2
SMILES: CNCCC(Oc1ccc(C(F)(F)F)cc1)c1ccccc1.Cl (centres unmarked) [Fluoxetine HCl Provided by Supplier 2]

- D (v, 0.9) [2]: D (v, 0.9) = 16.56 µm
- D (v. 0.1) [2]: D (v. 0.1) = 0.85 […]mMedian,
- Mean, D [4, 3] [2]: Mean, D [4, 3] = 11.02 µm
- Median, D (v, 0.5) [2]: D (v, 0.5) = 4.44 µm
- Span [2]: Span = 3.541E+00
- Uniformity [2]: Uniformity = 1.980E+00
SMILES: Fc1ccc([C@@H]2CCNC[C@H]2COc2ccc3c(c2)OCO3)cc1 [Paroxetine, (−)-trans-4R-(4′-fluorophenyl)-3S[(3′,4′-methylenedioxyphenoxy)methyl]piperidine hydrochloride (hemihydrate)]
- Cmax at steady state, mean [4, 6]: 61.7 ng/mL
- Cmin at steady state, mean [4, 6]: 30.7 ng/mL
- Tmax at steady state, mean [4, 6]: 5.2 h
- t1/2 at steady state, mean [4, 6]: 21.0 h
- steady state Cmax relative to prediction from single dose studies [4, 7]: about 6 times
- steady state Cmin relative to prediction from single dose studies [4, 7]: ~14 times
- steady state drug exposure based on AUC0-24 relative to prediction from single dose data [4, 7]: about 8 times
- time to steady state Paroxetine concentrations ([4]; 30 mg tablets daily, most subjects): approximately 10 days
- increase of AUC when administered with food [4, 8]: 6%
- increase of Cmax when administered with food [4, 8]: 29%
- time to reach peak plasma concentration ([4]; single dose with food): 4.9 h
- time to reach peak plasma concentration ([4]; single dose without food): 6.4 h

SMILES: CN[C@H]1CC[C@@H](c2ccc(Cl)c(Cl)c2)c2ccccc21.Cl [Sertraline, (1S-cis)-4(3,4-dichlorophenyl)-1,2,3,4-tetrahydro-N-methyl-1-naphthalenamine hydrochloride]
- Tmax ([5]; oral concentrate, single dose with food): 7.0 h
- increase of Cmax with food ([5]; tablet, single dose with and without food): 25%
